The target of data set [1] is Mitogen-activated protein kinase 3 (Homo sapiens) (UniProt P27361). The data set is described as follows: Inhibition of ERK1 (unknown origin) at 0.3 uM.
For the next data set, the target named is Cholinesterase (Homo sapiens, UniProt P06276). Description: Inhibition of BChE (unknown origin).
Data set [2] addresses Mitogen-activated protein kinase 14 (Homo sapiens) (UniProt Q16539). Description: Inhibition of p38alpha (unknown origin) at 0.3 uM.
Data set [3] can be described thus: MRT (0 to infinity) in Sprague-Dawley rat at 10 mg/kg, po measured up to 24 hrs by LC-MS/MS analysis. It is filed as ADME, organism-based. To be noted: in vivo.
In a further data set the test system is Rattus norvegicus. Description: Neuroprotective activity against amyloid beta (1 to 42)-induced suppression of synaptophysin in Sprague-Dawley rat at 5 mg/kg/day, po measured after 5 days by immunohistochemistry assay. The format is functional, organism-based. To be noted: time 5.0 day.
A short description of data set [4]: Oral bioavailability in Sprague-Dawley rat at 10 mg/kg measured up to 24 hrs by LC-MS/MS analysis. To be noted: in vivo. The format is ADME, organism-based.
Data set [5] has as its target Cholinesterases; ACHE & BCHE (Homo sapiens) (UniProt P06276+P22303). The data set is described as follows: Selectivity index, ratio of IC50 for BChE (unknown origin) to IC50 for human recombinant AChE. It is filed as protein assay.
In data set [6] the target is Cyclin-dependent kinase 4 (Homo sapiens) (UniProt P11802). The data set is described as follows: Inhibition of CDK4 (unknown origin) at 0.3 uM.
A further data set has as its system Mus musculus. The data set is described as follows: Cognitive enhancing effect in mouse model of scopolamine-induced amnesia assessed as escape latency time at 10 mg/kg/day, po measured by Morris water maze test (reference value: 17.9 sec). It is filed as functional.
For data set [7], the target named is T1, Acetylcholinesterase (Mus musculus) (UniProt P21836).
T1 sequence (whole entry): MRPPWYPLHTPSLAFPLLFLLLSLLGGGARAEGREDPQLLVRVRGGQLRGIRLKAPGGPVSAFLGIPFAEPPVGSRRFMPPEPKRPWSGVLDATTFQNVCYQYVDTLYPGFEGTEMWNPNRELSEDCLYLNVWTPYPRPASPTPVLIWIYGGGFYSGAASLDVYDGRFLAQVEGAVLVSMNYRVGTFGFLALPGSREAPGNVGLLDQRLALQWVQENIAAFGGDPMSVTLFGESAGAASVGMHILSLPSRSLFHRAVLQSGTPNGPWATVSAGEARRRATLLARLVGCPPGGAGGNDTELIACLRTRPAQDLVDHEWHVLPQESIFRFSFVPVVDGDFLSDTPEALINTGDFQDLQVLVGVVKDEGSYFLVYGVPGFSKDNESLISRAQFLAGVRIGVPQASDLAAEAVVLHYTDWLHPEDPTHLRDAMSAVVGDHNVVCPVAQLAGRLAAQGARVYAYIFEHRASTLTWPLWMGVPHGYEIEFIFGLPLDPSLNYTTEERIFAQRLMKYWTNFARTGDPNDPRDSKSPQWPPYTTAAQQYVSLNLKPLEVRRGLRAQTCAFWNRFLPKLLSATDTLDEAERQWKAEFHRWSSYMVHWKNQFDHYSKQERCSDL
To be noted: ICR, dose 10.0 mg/kg, time 1.5 hrs.

The nature of data set [8]: Toxicity in amyloid beta (1 to 42)-induced mouse model of Alzheimer's disease assessed as changes in body weight at 10 mg/kg/day, po measured after 9 days. The format is organism-based. As to conditions: in vivo, 216 h, time 9 day.
Data set [9] can be described thus: Half life in Sprague-Dawley rat at 10 mg/kg, po measured up to 24 hrs by LC-MS/MS analysis. The format is ADME, organism-based. As to conditions: in vivo.
The test system of another data set is HT-22. Description: Neuroprotective activity in mouse HT-22 cells assessed as glutamate-induced cell mortality at 6 uM preincubated for 1 hr followed by addition of glutamate and measured after 24 hrs (reference value: 58%). The format is functional. To be noted: time 25 hrs.
Data set [10] has as its target Mitogen-activated protein kinase 9 (Homo sapiens) (UniProt P45984). Description: Inhibition of JNK2 (unknown origin) at 0.3 uM.
A short description of data set [11]: Effective permeability of the compound by PAMPA-BBB assay. As to conditions: read-out: Peff. The format is ADME. On the technique in general: In PAMPA a lipid-coated filter parts donor from acceptor wells.
Data set [12] has as its target Mitogen-activated protein kinase 12 (Homo sapiens) (UniProt P53778). Description: Inhibition of p38gamma (unknown origin) at 0.3 uM.
Data set [13] in a line: Drug level in ICR mouse plasma at 10 mg/kg, po measured after 1 hr by LC/MS/MS analysis. It is filed as ADME, organism-based.
Data set [14] addresses Mitogen-activated protein kinase 10 (Homo sapiens) (UniProt P53779). Description: Inhibition of JNK3 (unknown origin) at 0.3 uM.
Data set [15] is described as follows: Cmax in Sprague-Dawley rat at 1 mg/kg, iv measured up to 24 hrs by LC-MS/MS analysis. It is filed as ADME, organism-based. Details: route intravenous, dose 1 mg/kg, time <=24. To be noted: in vivo.
Data set [16] is described as follows: AUC (0 to infinity) in Sprague-Dawley rat at 1 mg/kg, iv measured up to 24 hrs by LC-MS/MS analysis. It is filed as ADME, organism-based. Details: route intravenous, dose 1 mg/kg, time <=24. To be noted: in vivo.
Data set [17] can be described thus: Ratio of drug level in brain to plasma of ICR mouse at 10 mg/kg, po measured after 1 hr by LC/MS/MS analysis. It is filed as ADME, organism-based. As to conditions: brain and plasma.

From ChEMBL document CHEMBL4831493 (Eur J Med Chem, 2021) come the findings set out here.

SMILES strings stand for the structures. Active and inactive are the calls of the source.

Chain of Mitogen-activated protein kinase 12 (Homo sapiens) (P53778 whole entry): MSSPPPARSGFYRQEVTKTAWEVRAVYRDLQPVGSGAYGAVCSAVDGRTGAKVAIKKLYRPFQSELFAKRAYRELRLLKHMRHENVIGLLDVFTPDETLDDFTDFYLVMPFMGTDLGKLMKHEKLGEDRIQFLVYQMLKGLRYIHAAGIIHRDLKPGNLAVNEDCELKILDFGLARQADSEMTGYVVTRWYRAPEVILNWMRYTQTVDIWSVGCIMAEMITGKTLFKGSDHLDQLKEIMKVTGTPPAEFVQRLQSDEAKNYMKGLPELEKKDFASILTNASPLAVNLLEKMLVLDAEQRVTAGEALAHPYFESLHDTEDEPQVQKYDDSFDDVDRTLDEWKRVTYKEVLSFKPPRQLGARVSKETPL
Chain of Cyclin-dependent kinase 4 (Homo sapiens) (P11802 whole entry): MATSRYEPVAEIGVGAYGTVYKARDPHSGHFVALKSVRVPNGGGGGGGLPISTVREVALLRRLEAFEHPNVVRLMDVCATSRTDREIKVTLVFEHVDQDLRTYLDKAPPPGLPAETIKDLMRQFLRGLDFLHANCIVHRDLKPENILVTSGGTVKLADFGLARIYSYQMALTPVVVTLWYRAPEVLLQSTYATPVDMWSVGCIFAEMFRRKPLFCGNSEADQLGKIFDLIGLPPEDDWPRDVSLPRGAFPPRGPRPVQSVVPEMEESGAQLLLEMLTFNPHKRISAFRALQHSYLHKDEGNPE
Chain of Cholinesterases; ACHE & BCHE (Homo sapiens) (P06276 whole entry, looked up): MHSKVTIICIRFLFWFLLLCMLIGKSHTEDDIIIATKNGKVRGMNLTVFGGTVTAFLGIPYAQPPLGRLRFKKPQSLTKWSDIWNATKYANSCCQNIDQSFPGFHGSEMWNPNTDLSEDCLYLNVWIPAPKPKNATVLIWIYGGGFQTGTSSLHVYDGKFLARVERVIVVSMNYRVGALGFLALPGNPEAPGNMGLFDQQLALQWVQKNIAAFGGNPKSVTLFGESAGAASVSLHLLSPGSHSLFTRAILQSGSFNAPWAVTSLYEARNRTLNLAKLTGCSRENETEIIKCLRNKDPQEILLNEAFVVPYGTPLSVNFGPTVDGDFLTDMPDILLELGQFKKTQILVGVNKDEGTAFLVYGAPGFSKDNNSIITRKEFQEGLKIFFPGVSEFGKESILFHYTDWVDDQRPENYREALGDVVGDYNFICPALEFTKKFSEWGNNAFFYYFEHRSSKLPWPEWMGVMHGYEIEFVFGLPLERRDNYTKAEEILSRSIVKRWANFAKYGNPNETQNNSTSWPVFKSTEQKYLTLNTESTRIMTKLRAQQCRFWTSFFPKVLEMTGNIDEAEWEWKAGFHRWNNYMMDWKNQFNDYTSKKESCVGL
Chain of Cholinesterases; ACHE & BCHE (Homo sapiens) (P22303 whole entry, looked up): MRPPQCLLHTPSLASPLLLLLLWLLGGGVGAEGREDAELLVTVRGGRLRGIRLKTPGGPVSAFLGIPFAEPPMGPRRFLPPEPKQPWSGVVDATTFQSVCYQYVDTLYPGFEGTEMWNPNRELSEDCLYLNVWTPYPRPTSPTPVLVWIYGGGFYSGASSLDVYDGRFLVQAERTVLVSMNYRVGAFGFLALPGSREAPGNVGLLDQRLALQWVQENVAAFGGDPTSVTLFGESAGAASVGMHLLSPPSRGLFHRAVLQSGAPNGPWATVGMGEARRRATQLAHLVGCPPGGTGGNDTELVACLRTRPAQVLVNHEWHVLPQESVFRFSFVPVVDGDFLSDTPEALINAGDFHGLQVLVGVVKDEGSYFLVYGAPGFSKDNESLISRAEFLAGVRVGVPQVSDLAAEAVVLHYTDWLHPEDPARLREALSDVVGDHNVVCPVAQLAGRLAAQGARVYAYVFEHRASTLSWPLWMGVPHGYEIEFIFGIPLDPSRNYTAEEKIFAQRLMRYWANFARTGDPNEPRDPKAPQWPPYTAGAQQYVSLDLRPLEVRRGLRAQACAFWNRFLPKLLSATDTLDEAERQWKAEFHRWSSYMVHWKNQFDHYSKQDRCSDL
Chain of Cholinesterase (P06276 whole entry): as the sequence (P06276 whole entry, looked up) above
Chain of Mitogen-activated protein kinase 9 (Homo sapiens) (P45984 whole entry, looked up): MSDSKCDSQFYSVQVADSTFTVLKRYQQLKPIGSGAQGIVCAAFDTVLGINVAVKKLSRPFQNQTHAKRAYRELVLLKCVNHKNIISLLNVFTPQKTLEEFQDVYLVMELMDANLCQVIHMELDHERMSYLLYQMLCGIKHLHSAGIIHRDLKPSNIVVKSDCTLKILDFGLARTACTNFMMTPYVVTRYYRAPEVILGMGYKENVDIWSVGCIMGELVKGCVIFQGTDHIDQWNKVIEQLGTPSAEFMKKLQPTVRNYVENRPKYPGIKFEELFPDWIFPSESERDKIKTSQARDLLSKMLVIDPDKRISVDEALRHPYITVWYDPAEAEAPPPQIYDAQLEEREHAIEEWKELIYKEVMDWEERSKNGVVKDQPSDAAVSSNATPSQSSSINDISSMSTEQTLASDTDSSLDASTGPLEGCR
Chain of Mitogen-activated protein kinase 10 (Homo sapiens) (P53779 whole entry): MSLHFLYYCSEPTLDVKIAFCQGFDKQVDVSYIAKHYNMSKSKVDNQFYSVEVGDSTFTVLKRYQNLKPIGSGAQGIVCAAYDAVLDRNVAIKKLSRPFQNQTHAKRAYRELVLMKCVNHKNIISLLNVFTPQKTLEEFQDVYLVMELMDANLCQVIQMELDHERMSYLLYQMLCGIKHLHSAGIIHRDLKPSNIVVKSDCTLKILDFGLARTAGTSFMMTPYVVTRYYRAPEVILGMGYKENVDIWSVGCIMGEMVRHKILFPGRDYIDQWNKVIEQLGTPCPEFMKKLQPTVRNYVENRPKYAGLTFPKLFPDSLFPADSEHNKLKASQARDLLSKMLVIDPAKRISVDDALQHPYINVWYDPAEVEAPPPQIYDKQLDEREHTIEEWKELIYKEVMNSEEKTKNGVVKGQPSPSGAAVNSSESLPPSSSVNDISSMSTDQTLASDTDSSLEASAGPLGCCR
Chain of Mitogen-activated protein kinase 14 (Homo sapiens) (Q16539 whole entry): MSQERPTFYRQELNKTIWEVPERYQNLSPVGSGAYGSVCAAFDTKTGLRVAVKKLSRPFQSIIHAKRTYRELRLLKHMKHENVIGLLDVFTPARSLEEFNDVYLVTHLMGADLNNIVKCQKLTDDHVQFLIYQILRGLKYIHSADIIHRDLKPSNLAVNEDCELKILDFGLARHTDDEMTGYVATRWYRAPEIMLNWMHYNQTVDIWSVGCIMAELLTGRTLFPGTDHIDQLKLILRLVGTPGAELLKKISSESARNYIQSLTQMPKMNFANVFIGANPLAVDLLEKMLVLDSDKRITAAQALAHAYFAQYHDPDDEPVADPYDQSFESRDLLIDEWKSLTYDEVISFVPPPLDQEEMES
Chain of Mitogen-activated protein kinase 3 (Homo sapiens) (P27361 whole entry): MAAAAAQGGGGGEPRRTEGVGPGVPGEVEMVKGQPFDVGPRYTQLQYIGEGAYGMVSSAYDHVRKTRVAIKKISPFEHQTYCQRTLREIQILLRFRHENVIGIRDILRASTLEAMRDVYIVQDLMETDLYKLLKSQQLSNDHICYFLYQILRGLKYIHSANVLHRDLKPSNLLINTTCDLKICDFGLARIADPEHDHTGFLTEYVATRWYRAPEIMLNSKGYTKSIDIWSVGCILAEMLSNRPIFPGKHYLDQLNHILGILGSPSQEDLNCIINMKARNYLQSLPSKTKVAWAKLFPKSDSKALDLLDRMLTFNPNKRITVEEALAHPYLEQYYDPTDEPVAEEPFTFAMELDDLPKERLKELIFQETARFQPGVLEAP

For the compound `O=C(Nc1cncc(OCC2CCN(Cc3ccc(F)cc3)CC2)c1)c1ccnc(NC(=O)C2CC2)c1`, the inhibition result in [1], in data set [2], in data set [6], in data set [10], in [12] and in data set [14] was “inactive” each time. This compound also came in with an IC50 against Cholinesterase of 5.3 µM. Also, in data set [3], the MRT inf stood at 10.9 h. Further, in the data set on Rattus norvegicus, the result was Active. In [4], the bioavailability was determined as 31%. Also, the Selectivity Index in [5] is 5300. Further, in the data set on Mus musculus, the Time is given as 18.1 s. The compound also displayed an inhibition in [7] of 46.2%. In addition, the figures for the Activity entry (in data set [8]; with HT-22) were “Non-Toxic” and 66%, respectively. Besides, in data set [9], the half-life is 7.6 h. The Papp in data set [11] amounted to 10.5 ×10⁻⁶ cm/s. In [13], the concentration at 1 h is 405 ng/g. The same compound displayed a Cmax in data set [15] of 200 ng/mL. For the same compound, the AUC(0-inf) in [16] amounted to 407 ng·h/mL. The Kp at 1 h in [17] turned out to be 0.153.

In general, inhibition refers to the change of the read-out against control, counted positive when it falls. For orientation: IC50 means the midpoint of a concentration-inhibition curve. Low values mean inhibition by little substance, high ones a need for much substance. As a reminder, the MRT inf is the average time that molecules of a dose stay in the body. As a reminder, the bioavailability is dose-corrected exposure relative to a reference, in per cent. Low readings indicate poor availability, high ones good availability. As usually defined, the half-life is the time needed for the level to fall by half in the phase considered. One may read the Cmax as the highest concentration seen after dosing. A word on the AUC(0-inf): it is total exposure, with the tail of the curve extrapolated. A word on the Kp: it is tissue or fluid exposure divided by exposure in the circulation.
